Laboratory results reported in US11419934B2, “Use of VDAS to enhance immunomodulating therapies against tumors” (Oncotelic Therapeutics, Inc., priority 2015, dated 2022).

Columns and labels:
[1] = test system: T-cell mediated immune response; settings: J. Immunol. 2007; 178: 1573-1580; cited from earlier work
[2] = test system: EMT-6 mouse mammary tumor cells; assay: antitumor activity in mice bearing subcutaneous EMT-6 mouse mammary tumor cells; assay type: in vivo
Protocol: A randomized trial was conducted to evaluate the antitumor activity of fosbretabulin tromethamine (CA4P) in mice bearing subcutaneous EMT-6 mouse mammary tumor cells in combination with other treatments. Other treatments include a combination treatment with anti-CTLA-4 antibody (ref: BE0131, Bioxcell; clone: 9H10; reactivity: mouse; isotype: Hamster IgG1; storage conditions: +4° C.).
CA4P and anti-CTLA-4 antibodies were prepared in phosphate buffered saline (PBS). CA4P was injected at the dose of 100 mg/kg. The anti-CTLA-4 antibody was injected at the dose of 10 mg/kg. The tested items were injected into the peritoneal cavity of mice (e.g. intraperitoneally, IP). The administration volume was 10 mL/kg (200 μL/mouse of 20 g) adjusted to the most recent individual body weight of the mice.
An EMT-6 cell line having an ATCC origin and a culture medium was used. The EMT-6 cell line was established from a transplantable murine mammary carcinoma that arose in a BALB/cCRGL mouse after implantation of a hyperplastic mammary alveolar nodule. EMT-6 tumor cells were grown as a monolayer at 37° C. in a humidified atmosphere (5% CO2, 95% air). The culture medium was RPMI 1640 containing 2 mM L-glutamine (ref: BE12-702F, Lonza, Verviers, Belgium) supplemented with 10% fetal bovine serum (ref: 3302, Lonza).
Healthy female Balb/C mice, 6-8 weeks old at reception, were used in the study. […]

SMILES	effect on T-cell mediated immune response [1]	average tumor size (tumor volume versus time, FIG. 1) ([2]; Balb/C mice, EMT-6 tumors, CA4P 100 mg/kg IP, anti-CTLA-4 10 mg/kg IP, TWx2)	mice showing tumor regression ([2]; groups of 8 Balb/C mice, subcutaneous EMT-6 tumors, CA4P 100 mg/kg IP TWx2, anti-CTLA-4 10 mg/kg IP TWx2)
COc1cc2c(c(OC)c1OC)-c1ccc(OP(=O)(O)O)cc1[C@@H](NC(C)=O)CC2 [ZD6126]	may reduce T-cell mediated immune response		
COc1ccc(/C=C\c2cc(OC)c(OC)c(OC)c2)cc1OP(=O)(O)O.NC(CO)(CO)CO [CA4P, fosbretabulin tromethamine]		steadily increased	One of the eight
